Experimental findings from US10220091B2, “Combination treatments with sonic hedgehog inhibitors” (The General Hospital Corporation, priority 2013, dated 2019) are described below.

In assay [1] the test system is Colo38, Colo38R, M21, M21R and TPF-10-741 cells. The assay is described as follows: MTT dose titration of PDGFRα-I. The conditions noted are these: Homo sapiens; dose titration experiment, MTT assay, the 5 cell lines; read-out: IC50 doses. Type of assay: cell-based. As to the method:
MTT assay was carried out as reported elsewhere^2. […] All experiments were performed three independent times in triplicates.
A dose titration experiment established the dose of PDGFRα-I to be combined with vemurafenib in the 5 cell lines.

Assay [2] concerns p-ERK. Put plainly: Western blot of cell lysates, p-ERK. The conditions noted are these: Colo38R, M21R and TPF-10-741 cells; vemurafenib 1 μM, sunitinib 3 μM, imatinib 20 μM. Background: In western blotting, separated proteins are transferred to a membrane and probed.
Method: A. Following an incubation at indicated time points at 37° C. cells were harvested and lysed. Cell lysates were analyzed by western blot with the indicated mAbs. β-actin-was used as a loading control. B. Following a 48 h incubation at 37° C. cells were harvested and lysed. Cell lysates were analyzed by western blot with the indicated mAbs. β-actin or Calnexin were used as a loading control. The results presented are representative of the results obtained in three independent experiments.
A. M21R and TPF-10-741 cells were transduced with PDGFRα-specific shRNA (#4) or with GFP-shRNA, used as a control, lentiviral particles. […] Following a three day incubation at 37° C. cells were harvested and lysed. Cell lysates were analyzed by western blot with the indicated mAbs. β-actin was used as a loading control. […] Cell proliferation was determined by MTT assay following a three day incubation at 37° C. Percentage of cell proliferation was calculated as the ratio of treated cells to untreated GFP-shRNA transduced cells. Data are expressed as mean±SD of the results obtained in three independent experiments. *** indicates P<0.01.
Following an incubation at indicated time points at 37° C. cells were harvested and lysed. Cell lysates were analyzed by western blot with the indicated mAbs. β-actin was used as a loading control. […]
In assay [3] the test system is melanoma cells. Put plainly: Overcoming BRAF-I resistance mediated by PDGFRβ upregulation. The class given is cell-based. Particulars: as reported and as found by the applicant.

As usually defined, the IC50 is the concentration that inhibits the measured activity by half. `CC1(COc2ccc3c(c2)ncn3-c2ccc3cccc(N4CCC(N)CC4)c3n2)COC1` [crenolanib]: in assay [1], the IC50 is 1000 nM. In the case of `CCCS(=O)(=O)Nc1ccc(F)c(C(=O)c2c[nH]c3ncc(-c4ccc(Cl)cc4)cc23)c1F` [vemurafenib], in assay [2], the p-ERK levels entry is on record as “not inhibited”. As to `Cc1ccc(NC(=O)c2ccc(CN3CCN(C)CC3)cc2)cc1Nc1nccc(-c2cccnc2)n1` [imatinib], the “ability to overcome BRAF-I resistance mediated by PDGFRβ upregulation” value in assay [3] was “not able to overcome”. With `CCN(CC)CCNC(=O)c1c(C)[nH]c(/C=C2\C(=O)Nc3ccc(F)cc32)c1C` [sunitinib], the IC50 in assay [1] came out at 2000 nM.
